Reference: ChEMBL document CHEMBL1130764, “Synthesis of a potent wide-spectrum serotonin-, norepinephrine-, dopamine-reuptake inhibitor (SNDRI) and a species-selective dopamine-reuptake inhibitor based on the gamma-amino alcohol functional group” (Bioorg Med Chem Lett, 1998)

Experiments:
[1] = biological target: Norepinephrine transporter (Rattus norvegicus, UniProt Q9WTR4); type: subcellular, Hippocampus
[2] = biological target: Sodium-dependent dopamine transporter (Rattus norvegicus, UniProt P23977); assay: Inhibition of [3H]- DA reuptake into rat striatal synaptosomes; type: subcellular, Brain
Chain of Sodium-dependent dopamine transporter (Rattus norvegicus, UniProt P23977) (P23977 whole entry): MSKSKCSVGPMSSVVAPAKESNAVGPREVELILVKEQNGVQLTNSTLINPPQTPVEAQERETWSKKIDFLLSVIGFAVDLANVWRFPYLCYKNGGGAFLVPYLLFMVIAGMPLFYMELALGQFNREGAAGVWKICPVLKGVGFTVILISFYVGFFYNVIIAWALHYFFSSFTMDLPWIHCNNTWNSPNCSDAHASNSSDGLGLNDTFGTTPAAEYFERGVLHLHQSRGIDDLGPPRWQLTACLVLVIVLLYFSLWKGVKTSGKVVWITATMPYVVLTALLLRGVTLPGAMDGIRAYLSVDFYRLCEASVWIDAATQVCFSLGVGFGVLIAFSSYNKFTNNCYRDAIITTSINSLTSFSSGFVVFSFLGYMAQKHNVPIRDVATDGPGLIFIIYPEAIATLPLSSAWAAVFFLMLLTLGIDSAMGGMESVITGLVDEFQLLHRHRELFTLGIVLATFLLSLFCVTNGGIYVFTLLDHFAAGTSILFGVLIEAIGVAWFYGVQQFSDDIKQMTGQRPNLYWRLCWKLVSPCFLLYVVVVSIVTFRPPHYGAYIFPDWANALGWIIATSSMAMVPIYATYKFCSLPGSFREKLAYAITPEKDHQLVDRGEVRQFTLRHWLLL

[3] = biological target: Sodium-dependent noradrenaline transporter (Homo sapiens, UniProt P23975)
Chain of Sodium-dependent noradrenaline transporter (P23975 whole entry): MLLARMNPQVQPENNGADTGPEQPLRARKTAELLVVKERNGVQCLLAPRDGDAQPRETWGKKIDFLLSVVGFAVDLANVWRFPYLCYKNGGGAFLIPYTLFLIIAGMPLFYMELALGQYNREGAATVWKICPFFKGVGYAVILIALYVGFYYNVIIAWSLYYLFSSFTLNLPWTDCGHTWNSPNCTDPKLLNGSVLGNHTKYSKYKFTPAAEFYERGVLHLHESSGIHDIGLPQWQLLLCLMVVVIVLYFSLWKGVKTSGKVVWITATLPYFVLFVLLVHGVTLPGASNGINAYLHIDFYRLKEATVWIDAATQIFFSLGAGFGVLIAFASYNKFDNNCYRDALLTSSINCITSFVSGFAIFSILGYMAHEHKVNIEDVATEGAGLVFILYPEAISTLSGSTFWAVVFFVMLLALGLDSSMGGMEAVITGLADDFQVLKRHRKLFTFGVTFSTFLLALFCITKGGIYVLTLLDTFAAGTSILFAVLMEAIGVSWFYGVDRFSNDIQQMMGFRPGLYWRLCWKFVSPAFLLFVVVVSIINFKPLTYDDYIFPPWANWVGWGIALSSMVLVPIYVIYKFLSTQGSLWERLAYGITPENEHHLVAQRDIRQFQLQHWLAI

[4] = biological target: T1, Sodium-dependent dopamine transporter (Homo sapiens, UniProt Q01959); assay: Equilibrium dissociation constant (KD) for Competitive binding between [3H]WIN-35428 and the compound at human transporter-hDAT
T1 sequence (Q01959 whole entry): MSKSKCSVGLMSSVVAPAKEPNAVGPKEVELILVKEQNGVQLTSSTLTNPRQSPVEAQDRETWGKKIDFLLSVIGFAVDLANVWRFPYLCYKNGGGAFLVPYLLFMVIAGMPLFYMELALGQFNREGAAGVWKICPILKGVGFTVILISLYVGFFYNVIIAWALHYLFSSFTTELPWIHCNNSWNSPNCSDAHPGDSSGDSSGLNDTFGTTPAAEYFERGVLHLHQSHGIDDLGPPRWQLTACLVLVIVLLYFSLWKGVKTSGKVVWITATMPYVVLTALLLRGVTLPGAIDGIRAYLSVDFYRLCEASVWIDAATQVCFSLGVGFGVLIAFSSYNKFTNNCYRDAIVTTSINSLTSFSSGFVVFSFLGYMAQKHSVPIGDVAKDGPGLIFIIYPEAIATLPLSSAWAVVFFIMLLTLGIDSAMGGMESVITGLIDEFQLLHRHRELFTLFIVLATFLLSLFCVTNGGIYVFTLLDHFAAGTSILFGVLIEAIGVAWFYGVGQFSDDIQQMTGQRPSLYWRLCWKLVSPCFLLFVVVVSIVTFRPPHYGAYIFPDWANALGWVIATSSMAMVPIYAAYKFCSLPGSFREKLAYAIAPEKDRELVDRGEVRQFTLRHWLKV

Glutamate NMDA receptor [5] = assay: Inhibition of N-methyl-D-aspartate (NMDA) Receptor, by the displacement of [3H]MK-801 in rat brain membranes; type: cell membranes
Rattus norvegicus = species on record: Rattus norvegicus; assay: Compound was evaluated for Dopamine reuptake inhibition in rat striatal synaptosomes; type: functional, Brain
[6] = biological target: T1, Sodium-dependent dopamine transporter; assay: Equilibrium dissociation constant (KD) for Competitive binding between [3H]WIN-35428 and the compound at human transporter -hDAT
Glutamate NMDA receptor [7] = assay: Compound was evaluated for noncompetitive inhibition of N-methyl-D-aspartate (NMDA) Receptor by the displacement of [3H]MK-801 in rat brain membranes; type: cell membranes

Chain of Norepinephrine transporter (Q9WTR4 whole entry): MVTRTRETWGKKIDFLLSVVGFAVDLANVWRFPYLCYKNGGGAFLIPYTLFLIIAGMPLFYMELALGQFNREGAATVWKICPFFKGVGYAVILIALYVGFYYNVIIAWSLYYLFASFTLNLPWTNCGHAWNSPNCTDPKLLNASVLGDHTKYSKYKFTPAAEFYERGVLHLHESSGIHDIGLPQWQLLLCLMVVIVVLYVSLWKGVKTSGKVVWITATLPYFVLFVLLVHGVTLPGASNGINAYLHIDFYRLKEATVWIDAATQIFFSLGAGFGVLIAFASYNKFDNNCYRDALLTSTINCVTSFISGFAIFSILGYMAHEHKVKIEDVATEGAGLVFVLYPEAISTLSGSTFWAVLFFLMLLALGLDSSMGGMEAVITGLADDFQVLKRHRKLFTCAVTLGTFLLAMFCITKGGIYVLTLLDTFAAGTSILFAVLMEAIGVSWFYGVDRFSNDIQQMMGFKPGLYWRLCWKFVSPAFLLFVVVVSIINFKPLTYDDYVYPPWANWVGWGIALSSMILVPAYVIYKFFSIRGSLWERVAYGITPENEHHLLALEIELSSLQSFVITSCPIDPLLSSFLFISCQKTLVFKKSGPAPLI

Row | Compound | Ki [1] | Ki [2] | Kd [3] | Kd [6] | IC50 (Glutamate NMDA receptor [7]) | Kd [4] | IC50 (Glutamate NMDA receptor [5]) | Kd (Rattus norvegicus)
1 | COc1ccc([C@H](CN(C)C)[C@@H](O)C2CCCCC2)cc1 (racemic) | 0.22 µM | 0.64 µM | 1.8 µM | – | – | 3.5 µM | > 200 µM | –
2 | CN(C)C[C@@H](c1ccc2ccccc2c1)[C@@H](O)c1ccccc1 (racemic) | – | – | – | – | – | 0.07 µM | 143 µM | –
3 | NC[C@@H](c1ccc2ccccc2c1)[C@@H](O)c1ccccc1 (racemic) | – | – | – | – | – | 0.14 µM | 65 µM | –
4 | CN(C)C[C@@H](c1ccccc1)[C@@H](O)C(C)(C)C (racemic) | 0.83 µM | 1.2 µM | 3.43 µM | – | – | 21.4 µM | 121 µM | –
5 | NC[C@@H](c1ccccc1)[C@@H](O)c1ccccc1 (racemic) | 5.78 µM | 6.6 µM | 12.5 µM | – | – | 24 µM | 5.6 µM | –
6 | CN(C)C[C@@H](c1ccc2ccccc2c1)[C@@H](O)C(C)(C)C (racemic) | 0.01 µM | 0.06 µM | 0.0299 µM | – | – | 0.34 µM | 21 µM | –
7 | CC(C)(C)[C@H](O)[C@@H](CN)c1ccc2ccccc2c1 (racemic) | – | 0.12 µM | 0.055 µM | – | – | 27 µM | 3 µM | 0.278 µM
8 | CC(C)(C)[C@H](O)[C@@H](CN)c1ccccc1 (racemic) | 3.8 µM | 4.57 µM | 47.9 µM | – | – | 7.26 µM | 14 µM | –

Second part, led by results:

Row | Ki [1] | Ki [2] | Kd [3] | Kd [6] | IC50 (Glutamate NMDA receptor [7]) | Compound | Kd [4] | IC50 (Glutamate NMDA receptor [5]) | Kd (Rattus norvegicus)
9 | 8.6 µM | 5.31 µM | 22.5 µM | – | – | Cc1cc(C)c([C@H](O)[C@@H](CN)c2ccccc2)c(C)c1 (racemic) | 0.34 µM | 63 µM | –
10 | 0.33 µM | 1.46 µM | 1.54 µM | – | – | COc1ccc([C@H](CN)[C@@H](O)C2CCCCC2)cc1 (racemic) | 4.31 µM | 84 µM | –
11 | 8.5 µM | 4.88 µM | 35.8 µM | – | – | Cc1cc(C)c([C@H](O)[C@@H](CN(C)C)c2ccccc2)c(C)c1 (racemic) | 42 µM | > 200 µM | –
12 | 0.99 µM | 1.55 µM | 2.25 µM | 12 µM | 47 µM | CN(C)C[C@@H](c1ccccc1)[C@@H](O)c1ccccc1 (racemic) | – | – | –
13 | 0.17 µM | 48 µM | 0.155 µM | – | – | CCOc1ccccc1OCC1CNCCO1 (racemic) [VILOXAZINE] | 0.155 µM | – | –
14 | – | 2.38 µM | – | – | – | CCc1nn(CCCN2CCN(c3cccc(Cl)c3)CC2)c(=O)n1CCOc1ccccc1 [NEFAZODONE] | – | – | –
